Results: patent US8350048B2, “Amide compounds as boosters of antivirals” (Janssen R&D Ireland, priority 2007, dated 2013)
Where two headings read alike, the source gives them in different places.

Key:
[1] = system: MT4 CMV-EGFP cells; experiment: Toxicity, mock-infected MT4 CMV-EGFP cells; assay type: cell-based, human
Text: (§1) Assay 1 &2: Antiviral Activity/Toxicity
(§2) Analogously, MT4 cells are engineered with GFP and the constitutional cytomegalovirus (CMV) promotor. […] Cytotoxic investigational compounds reduce GFP levels of mock-infected MT4 CMV-EGFP cells.
(§3) The ratio of CC50 to EC50 is defined as the selectivity index (SI) and is an indication of the selectivity of the anti-HIV activity of the inhibitor. The ultimate monitoring of HIV-1 infection and cytotoxicity is done using a scanning microscope. Image analysis allows very sensitive detection of viral infection. Measurements are done before cell necrosis, which usually takes place about five days after infection, in particular measurements are performed three days after infection.
(§4) A pEC50 value corresponds to −log10(EC50). A pCC50 value corresponds to −log10(CC50).

[2] = Metabolic stability of test compounds (HLM15'); assay type: in vitro ADME, human; conditions: for recovery at 15 min, 5 μM: read-out: Metabolic stability (HLM, % recovery after 15')
Text: Human liver tissue is rinsed in ice-cold 0.1 M Tris-HCl (pH 7.4) buffer to wash excess blood. Tissue is then blotted dry, weighed and chopped coarsely using surgical scissors. The tissue pieces are homogenized in 3 volumes of ice-cold 0.1 M phosphate buffer (pH 7.4) using either a Potter-S (Braun, Italy) equipped with a Teflon pestle or a Sorvall Omni-Mix homogenizer, for 7×10 sec. In both cases, the vessel is kept in/on ice during the homogenization process. Tissue homogenates are centrifuged at 9000×g for 20 min at 4° C. using a Sorvall centrifuge or Beckman Ultracentrifuge. The resulting supernatant can be stored at −80° C. and is designated ‘S9’. The S9 fraction is centrifuged at 100,000×g for 60 min at 4° C. using a Beckman ultracentrifuge. The resulting supernatant is carefully aspirated, aliquoted and designated ‘cytosol’. The pellet is re-suspended in 0.1 M phosphate buffer (pH 7.4) in a final volume of 1 ml per 0.5 g original tissue weight and designated ‘microsomes’. All sub-cellular fractions are aliquoted, immediately frozen in liquid nitrogen and stored at −80° C. until use.
Heat-inactivated (10 min at 95° C.) ‘S9’ or microsomes were used for blank experiments. […] The reaction was incubated for 0 or 15 min. Next, the reaction was stopped by addition of 2 volumes of DMSO (or acetonitrile). Samples were centrifuged (10 min, 900×g) and analyzed by LC-MS.

[3] = system: wild-type HIV-1IIIB strain; experiment: Antiviral activity, MT4 LTR-EGFP cellular assay; assay type: cell-based; parameters: key to Antiviral activity IIIB (pEC50): pEC50 = -log10(EC50); conditions: for EC50: read-out: Antiviral activity IIIB (pEC50) (converted)
Experimental: as §1
The compounds of the present invention were tested for antiviral activity in a cellular assay, which was performed according to the following procedure.
The human T-cell line MT4 is engineered with Green Fluorescent Protein (GFP) and an HIV-specific promoter, HIV-1 long terminal repeat (LTR). This cell line is designated MT4 LTR-EGFP, and can be used for the in vitro evaluation of anti-HIV activity of investigational compounds. In HIV-1 infected cells, the Tat protein is produced which upregulates the LTR promotor and finally leads to stimulation of the GFP reporter production, allowing measuring ongoing HIV-infection fluorometrically.
as §3, §4

[4] = target: CYP2C9 (Homo sapiens, UniProt P11712); experiment: in vitro
CYP2C9, sequence (P11712 whole entry): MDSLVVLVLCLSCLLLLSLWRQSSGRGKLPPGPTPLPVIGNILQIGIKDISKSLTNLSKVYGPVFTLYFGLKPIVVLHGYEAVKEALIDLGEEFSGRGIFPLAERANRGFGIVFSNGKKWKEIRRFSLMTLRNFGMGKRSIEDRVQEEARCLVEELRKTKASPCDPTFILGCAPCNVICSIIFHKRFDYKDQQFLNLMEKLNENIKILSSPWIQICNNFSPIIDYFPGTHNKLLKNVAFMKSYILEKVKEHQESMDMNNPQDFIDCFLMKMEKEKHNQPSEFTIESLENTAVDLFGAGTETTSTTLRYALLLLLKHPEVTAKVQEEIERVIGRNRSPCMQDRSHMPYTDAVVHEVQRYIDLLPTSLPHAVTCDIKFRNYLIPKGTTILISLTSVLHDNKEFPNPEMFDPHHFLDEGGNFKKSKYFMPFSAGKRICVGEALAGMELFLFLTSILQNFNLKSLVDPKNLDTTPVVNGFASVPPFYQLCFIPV
Text: Assay 4: CYP450 Inhibition

[5] = Toxicity, mock-infected MT4 CMV-EGFP cells; assay type: cell-based, human; conditions: human
Text: as §1, §2, §3, §4

[6] = target: CYP2D6 (Homo sapiens, UniProt P10635); experiment: in vitro; conditions: pH 7.4
CYP2D6, sequence (P10635 whole entry): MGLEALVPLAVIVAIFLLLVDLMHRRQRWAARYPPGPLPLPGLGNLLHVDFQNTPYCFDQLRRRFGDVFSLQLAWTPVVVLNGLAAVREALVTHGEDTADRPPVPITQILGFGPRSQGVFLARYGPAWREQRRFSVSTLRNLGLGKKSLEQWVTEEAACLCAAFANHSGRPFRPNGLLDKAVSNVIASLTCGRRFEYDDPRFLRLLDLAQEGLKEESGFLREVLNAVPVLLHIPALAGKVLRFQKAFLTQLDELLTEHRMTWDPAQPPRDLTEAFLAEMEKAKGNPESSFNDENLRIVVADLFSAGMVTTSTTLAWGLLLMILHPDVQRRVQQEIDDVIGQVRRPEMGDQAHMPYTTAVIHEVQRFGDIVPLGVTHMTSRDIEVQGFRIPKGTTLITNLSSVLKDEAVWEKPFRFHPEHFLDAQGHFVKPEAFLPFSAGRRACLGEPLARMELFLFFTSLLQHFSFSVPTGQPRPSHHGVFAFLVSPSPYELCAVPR
Experimental: (§5) Inhibition of the metabolism of test compounds by different CYP P450 isoenzymes was determined using E. coli expressed proteins (3A4, 2C9, 2D6, 1A2, and 2C19) that convert their specific substrates into a fluorescent molecule (Table 6). This fluorescent molecule was measured using a fluorescent plate reader (Victor2 (Wallac) or Fluoroskan (Labsystems)). […] CYP P450 enzymes were prepared in house or commercially bought and stored at −80° C.
(§6) The assay was performed in black 96 well Costar plates. Test compounds were added to a CYP P450 enzyme solution in the presence of an NADPH generating system. After 5 min of preincubation at 37° C., the freshly prepared, phosphate buffered (pH 7.4) substrate solution was added. Known CYP P450 inhibitors were used as positive controls, negative controls were run without CYP P450 enzyme. […] Reaction mixtures were incubated at 37° C. for 30 min (CYP3A4-BFC), 30 min (CYP3A4-BQ), 10 min (CYP3A4-DBF), 15 min (CYP1A2-CEC), 30 min (CYP2C9-MFC, CYP2C19-CEC), or 45 min (CYP2D6-AMMC), respectively. Then, the reaction was stopped by the addition of 200 μl acetonitrile, and the fluorescent signal was detected.
(§7) Calculation of CYP P450 isoenzyme inhibition (% inh.):
(§8) % activity=(100/(average positive control−average negative control))×(average sample−average negative control)

[7] = target: CYP2C19 (Homo sapiens, UniProt P33261); experiment: in vitro; conditions: E. coli expressed CYP2C19, pH 7.4, probe CEC 25 μM
CYP2C19, sequence (P33261 whole entry): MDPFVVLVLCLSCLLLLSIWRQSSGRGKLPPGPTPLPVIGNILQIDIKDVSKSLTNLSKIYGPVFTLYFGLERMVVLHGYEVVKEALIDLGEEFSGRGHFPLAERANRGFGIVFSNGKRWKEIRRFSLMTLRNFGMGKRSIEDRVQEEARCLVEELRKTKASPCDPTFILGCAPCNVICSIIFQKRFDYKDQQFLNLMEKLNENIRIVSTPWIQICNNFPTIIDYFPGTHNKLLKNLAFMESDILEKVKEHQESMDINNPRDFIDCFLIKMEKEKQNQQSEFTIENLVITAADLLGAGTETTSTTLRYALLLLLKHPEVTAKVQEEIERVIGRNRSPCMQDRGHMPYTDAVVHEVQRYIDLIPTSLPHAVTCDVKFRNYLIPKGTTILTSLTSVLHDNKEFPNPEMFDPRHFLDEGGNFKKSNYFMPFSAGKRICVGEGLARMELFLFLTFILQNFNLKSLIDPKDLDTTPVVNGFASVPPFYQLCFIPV
Experimental: as §5, §6, §7, §8

[8] = human liver microsomes 1 mg/ml, 5 μM test compound, 15 min
[9] = wild-type HIV-1 IIIB, MT4 LTR-EGFP cells, three days after infection
[10] = mock-infected MT4 CMV-EGFP cells, read-out: Toxicity MT4 (pCC50) (converted)
[11] = pH 7.4, human liver microsomes 1 mg/ml, 5 μM test compound, 15 min
[12] = Human immunodeficiency virus 1, 72 h, wild-type HIV-1 IIIB, MT4 LTR-EGFP cells, three days after infection
[13] = Human immunodeficiency virus 1, IIIB, 72 h

Structure (SMILES) | Toxicity MT4 (pCC50) [1] | Metabolic stability (HLM, % recovery after 15') [2, 8] | Antiviral activity IIIB (pEC50) [3, 9] | Cyp450 inhibition: CDNA-CYP2C9-MFC (% inhibition) [4] | other results
CCN(C)c1nc2ccc(C(=O)N(CC(C)C)C[C@@H](O)[C@H](Cc3ccccc3)NC(=O)OCc3cccnc3)cc2o1 [Compound C9] | =4.24 | 65% | =4.32 | 91% | –
CC(C)CN(C[C@H](O)[C@H](Cc1ccccc1)NC(=O)OCc1cncs1)C(=O)c1ccc2nc(N3CCCC3)oc2c1 [Compound C51, Thiazol-5-ylmethyl (2S,3S)-3-hydroxy-4-(N-isobutyl-2-(pyrrolidin-1-yl)-benzo[d]oxazole-6-carboxamido)-1-phenylbutan-2-ylcarbamate] | – | – | – | – | CC50 at 3 days [5, 10]: 40.7 µM; recovery at 15 min, 5 μM [2, 11]: 66%; EC50 [3, 12]: 44.7 µM; inhibition at 45 min, 10 μM [6]: 82%; inhibition at 30 min, 10 μM [7]: 94%
CCN(C)c1nc2ccc(C(=O)N(CC(C)C)C[C@@H](O)[C@H](Cc3ccccc3)NC(=O)OCc3cncs3)cc2o1 [Compound C1, Thiazol-5-ylmethyl (2S,3R)-4-(2-(ethyl(methyl)amino)-N-isobutylbenzo[d]-oxazole-6-carboxamido)-3-hydroxy-1-phenylbutan-2-ylcarbamate] | – | – | – | – | CC50 at 3 days [5]: > 81.3 µM; recovery at 15 min, 5 μM [2, 11]: 71%; EC50 [3, 12]: 70.8 µM
CC(C)CN(C[C@@H](O)[C@H](Cc1ccccc1)NC(=O)OCc1cncs1)C(=O)c1ccc2nc(C(C)C)oc2c1 [Compound C45, Thiazol-5-ylmethyl (2S,3R)-3-hydroxy-4-(N-isobutyl-2-isopropylbenzo[d]-oxazole-6-carboxamido)-1-phenylbutan-2-ylcarbamate] | – | – | – | – | CC50 at 3 days [5, 10]: 42.7 µM; recovery at 15 min, 5 μM [2, 11]: 68%; EC50 [3, 12]: 44.7 µM; inhibition at 45 min, 10 μM [6]: 44%; inhibition at 30 min, 10 μM [7]: 89%
O=C(N[C@@H](Cc1ccccc1)[C@H](O)CN(CC1CCCCC1)C(=O)c1ccc2nc(N3CCCC3)oc2c1)OCc1cncs1 [Compound C31, Thiazol-5-ylmethyl (2S,3R)-4-(N-(cyclohexylmethyl)-2-(pyrrolidin-1-yl)-benzo[d]oxazole-6-carboxamido)-3-hydroxy-1-phenylbutan-2-ylcarbamate] | – | – | – | – | CC50 at 3 days [5, 10]: 21.9 µM; recovery at 15 min, 5 μM [2, 11]: 59%; EC50 [3, 13]: 27.5 µM; inhibition at 45 min, 10 μM [6]: 78%; inhibition at 30 min, 10 μM [7]: 104%
C#CCN(C)c1nc2ccc(C(=O)N(CC(C)C)C[C@@H](O)[C@H](Cc3ccccc3)NC(=O)OCc3cncs3)cc2o1 [Compound C50] | – | 72% | =4.32 | – | Toxicity MT4 (pCC50) ([1]; mock-infected MT4 CMV-EGFP cells): =4.32
CCN(C)c1nc2ccc(C(=O)N(CC(C)C)C[C@@H](O)[C@H](Cc3ccccc3)NC(=O)OCc3ccc4c(c3)OCO4)cc2o1 [Compound C36] | =4.57 | 62% | =4.79 | 84% | –
CC(C)CN(C[C@@H](O)[C@H](Cc1ccccc1)NC(=O)OCc1cncs1)C(=O)c1ccc2nc(N(C)CCN(C)C)oc2c1 [Compound C24] | <4.00 | – | – | – | Metabolic stability (HLM, % recovery after 15') [2]: 57%; Antiviral activity IIIB (pEC50) [3]: =4.20
CCN(C)c1nc2ccc(C(=O)N(CCN3CCCC3)C[C@@H](O)[C@H](Cc3ccccc3)NC(=O)OCc3cncs3)cc2o1 [Compound C12] | <4.00 | 69% | <4.00 | 34% | –
CC(C)CN(C[C@@H](O)[C@H](Cc1ccccc1)NC(=O)OCc1cncs1)C(=O)c1ccc2nc(N)oc2c1 [Compound C22] | <4.00 | – | – | – | Metabolic stability (HLM, % recovery after 15') [2]: 72%; Antiviral activity IIIB (pEC50) [3]: <4.00
CCN(C[C@@H](O)[C@H](Cc1ccccc1)NC(=O)OCc1cncs1)C(=O)c1ccc2nc(N3CCCC3)oc2c1 [Compound C30, Thiazol-5-ylmethyl (2S,3R)-4-(N-ethyl-2-(pyrrolidin-1-yl)benzo[d]oxazole-6-carboxamido)-3-hydroxy-1-phenylbutan-2-ylcarbamate] | – | – | – | – | CC50 [5]: 72.4 µM; recovery ([2]; human, pH 7.4): 80%; EC50 [3, 13]: 69.2 µM
CCN(C)c1nc2ccc(C(=O)N(CCN3CCOCC3)C[C@@H](O)[C@H](Cc3ccccc3)NC(=O)OCc3cncs3)cc2o1 [Compound C18] | <4.00 | 64% | <4.00 | 53% | –
CCN(C)c1nc2ccc(C(=O)N(CC(C)C)C[C@@H](O)[C@H](Cc3cccnc3)NC(=O)OCc3cncs3)cc2o1 [Compound C54, Thiazol-5-ylmethyl (2S,3R)-4-(2-(ethyl(methyl)amino)-N-isobutylbenzo[d]-oxazole-6-carboxamido)-3-hydroxy-1-(pyridin-3-yl)butan-2-ylcarbamate] | – | – | – | – | CC50 at 3 days [5, 10]: > 100 µM; EC50 [3, 12]: > 100 µM
CC(C)CN(C[C@@H](O)[C@H](Cc1ccccc1)NC(=O)OCc1cncs1)C(=O)c1ccc2nc(N3CCOCC3)oc2c1 [Compound C5] | =4.06 | 67% | <4.00 | 95% | –
CCN(C)c1nc2ccc(C(=O)N(C[C@@H](O)[C@H](Cc3ccccc3)NC(=O)OCc3cncs3)CC(C)(C)C)cc2o1 [Compound C43] | =4.34 | 67% | =4.32 | 97% | –
CC(C)CN(C[C@@H](O)[C@H](Cc1ccccc1)NC(=O)OCc1cncs1)C(=O)c1ccc2ncn(C(C)C)c2c1 [Compound C14] | <4.00 | 60% | <4.00 | 93% | –
CCN(C)c1nc2ccc(C(=O)N(CC(C)C)C[C@H](O)[C@H](Cc3ccccc3)NC(=O)OCc3cncs3)cc2o1 [Compound C52, Thiazol-5-ylmethyl (2S,3S)-4-(2-(ethyl(methyl)amino)-N-isobutylbenzo[d]-oxazole-6-carboxamido)-3-hydroxy-1-phenylbutan-2-ylcarbamate] | – | – | – | – | CC50 [5]: 44.7 µM; recovery at 15 min, 5 μM [2, 11]: 63%; EC50 [3, 12]: 44.7 µM
CC(C)CN(C[C@@H](O)[C@H](Cc1ccccc1)NC(=O)OCc1cncs1)C(=O)c1ccc2nc(NCCCn3ccnc3)oc2c1 [Compound C46] | <4.00 | 92% | =4.06 | 90% | –
CC(C)CN(C[C@@H](O)[C@H](Cc1cccnc1)NC(=O)OCc1cncs1)C(=O)c1ccc2ncsc2c1 [Compound C55, Thiazol-5-ylmethyl (2S,3R)-3-hydroxy-4-(N-isobutylbenzo[d]thiazole-6-carboxamido)-1-(pyridin-3-yl)butan-2-ylcarbamate] | – | – | – | – | CC50 at 3 days [5, 10]: > 100 µM; EC50 [3, 12]: > 100 µM
CC(C)CN(C[C@@H](O)[C@H](Cc1ccccc1)NC(=O)OCc1cncs1)C(=O)c1ccc2nc(NCCCN(C)C)oc2c1 [Compound C23] | <4.00 | 59% | =4.22 | 28% | –
CCN(C)c1nc2ccc(C(=O)N(CCN(C)C)C[C@@H](O)[C@H](Cc3ccccc3)NC(=O)OCc3cncs3)cc2o1 [Compound C11] | <4.00 | 57% | <4.00 | 29% | –
